Reference: ChEMBL document CHEMBL1201862, “PubChem BioAssay data set” (2004)
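Assay format: 96-well plates, 48-hour exposure. GI50 is the concentration that inhibits growth by half.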 Activity calls are given as the source filed them. Cut-off read from the data, not from the text of the source: active = GI50 up to about 1.1 µM and inactive = higher.

Experiments:
Test in all cases: growth of human tumour cells (NCI), 48 h
SN12C = tested on: SN12C
OVCAR-3 = tested on: OVCAR-3
Malme-3M = tested on: Malme-3M
MCF7 = tested on: MCF7
SK-MEL-2 = tested on: SK-MEL-2
OVCAR-4 = tested on: OVCAR-4
SF-539 = tested on: SF-539
IGROV-1 = tested on: IGROV-1
BT-549 = tested on: BT-549
SNB-75 = tested on: SNB-75
M14 = tested on: M14
CAKI-1 = tested on: CAKI-1
Hs-578T = tested on: Hs-578T
K562 = tested on: K562
EKVX = tested on: EKVX
SW-620 = tested on: SW-620
MDA-N = tested on: MDA-N
U-251 = tested on: U-251
RPMI-8226 = tested on: RPMI-8226
LOX IMVI = tested on: LOX IMVI

Row | Structure (SMILES) | GI50 (SN12C) | GI50 (OVCAR-3) | GI50 (Malme-3M) | GI50 (MCF7) | GI50 (SK-MEL-2) | GI50 (OVCAR-4) | GI50 (SF-539) | GI50 (IGROV-1) | GI50 (BT-549) | GI50 (SNB-75) | GI50 (M14) | GI50 (CAKI-1) | GI50 (Hs-578T) | GI50 (K562) | GI50 (EKVX) | GI50 (SW-620) | GI50 (MDA-N) | GI50 (U-251) | GI50 (RPMI-8226) | GI50 (LOX IMVI)
1 | CO[C@H]1C[C@](C)(O)Cc2cc3c(c(O)c21)C(=O)c1c(O)cc2c(c1C3=O)O[C@@H]1O[C@@]2(C)[C@H](O)[C@@H](N(C)C)[C@@H]1O | 0.499 µM (active) | 2.38 µM (inactive) | 1.09 µM (active) | 0.103 µM (active) | 2.43 µM (inactive) | 4.11 µM (inactive) | 0.851 µM (active) | 2.32 µM (inactive) | 2.05 µM (inactive) | 0.653 µM (active) | 1.16 µM (inactive) | 0.151 µM (active) | 5.25 µM (inactive) | 1.12 µM (inactive) | 3.55 µM (inactive) | 0.55 µM (active) | 1.85 µM (inactive) | 0.368 µM (active) |  | 
2 | COc1ccc(-c2cc3c(c4cc(OC)ccc24)C(=O)OC3=O)cc1 | > 100 µM (inactive) | > 100 µM (inactive) | > 100 µM (inactive) | > 100 µM (inactive) | > 100 µM (inactive) | > 100 µM (inactive) |  | > 100 µM (inactive) | > 100 µM (inactive) | 68.1 µM (inactive) | > 100 µM (inactive) | > 100 µM (inactive) | > 100 µM (inactive) | > 100 µM (inactive) | > 100 µM (inactive) | > 100 µM (inactive) | 86.5 µM (inactive) | > 100 µM (inactive) | > 100 µM (inactive) | > 100 µM (inactive)
3 | CC(=O)NC(Cc1c[nH]c2ccccc12)C(=O)O (stereo not given) | > 100 µM (inactive) | > 100 µM (inactive) | > 100 µM (inactive) | > 100 µM (inactive) | > 100 µM (inactive) | > 100 µM (inactive) |  | > 100 µM (inactive) | > 100 µM (inactive) |  | > 100 µM (inactive) | > 100 µM (inactive) | > 100 µM (inactive) | > 100 µM (inactive) | > 100 µM (inactive) | > 100 µM (inactive) | > 100 µM (inactive) | > 100 µM (inactive) | > 100 µM (inactive) | > 100 µM (inactive)
4 | CCN(CC)CCNC(=O)c1cc2cc(NC(=O)c3cc4cc(N)ccc4[nH]3)ccc2[nH]1 | 39 µM (inactive) |  |  | 15.1 µM (inactive) | 29.1 µM (inactive) | 8.05 µM (inactive) | 31.1 µM (inactive) |  | 28.1 µM (inactive) |  | 26.1 µM (inactive) | 86.5 µM (inactive) | 35 µM (inactive) | 18.6 µM (inactive) | 97.1 µM (inactive) | 33.3 µM (inactive) | 33.9 µM (inactive) | 25.6 µM (inactive) | 19.3 µM (inactive) | 
